Experimental data published in PMC3472974, “The Bite of the Honeybee: 2-Heptanone Secreted from Honeybee Mandibles during a Bite Acts as a Local Anaesthetic in Insects and Mammals” (PLoS ONE, 2012).
Values after ≈ are worked out from the molar mass of the structure shown. Marks after values point to notes of the source that are not given here.

What was measured:
[1] = tested on: isolated rat sciatic nerve; test: tissue or blood
Description: The ex vivo studies used both male and female rats weighing between 230 and 250 g. Animals were sacrificed using light anaesthesia with CO2 and cervical dislocation. The sciatic nerve of the rat, consisting of 27,000 sciatic nerve fibres, was isolated in a three-chamber recording bath (Fig. 5b). The sciatic nerves were dissected from the spinal cord to the knee, immersed in oxygenated (O2, 100%) saline solution and cleaned. The composition of the saline was (in mmoles/L): 136 NaCl, 11 glucose, 4.7 KCl, 2.4 CaCl2, 1.1 MgCl2, 1 NaHCO3, 10 HEPES, pH = 7.2). All experiments were performed at a constant temperature, 26.0±1.0°C. […] The nerve was mounted in a three-chambered recording bath made of Plexiglas, which is described elsewhere, [30]. The recording bath consisted of the recording (R in Fig. 5b), perfusion (P) and stimulating (S) chambers, each with a volume of 12 mL. The nCAP (Fig. 5a) was generated by stimulating (1 Hz) the part of the nerve in the stimulating chamber and was recorded in the recording chamber every second using standard electrophysiological methods. The nCAP was monitored throughout the experiment as an indication of the vitality of the nerve fibres in the recording bath. […] Immediately after the nCAP was eliminated, the saline+compound was removed and the nerve was washed out. Then, recovery of the nCAP in normal stagnant saline was monitored for 24 h. It is worth noting that the recording bath is designed in such a way that the chambers with the saline and 2-H (the nerves and the recording electrodes) was shielded from the air by using the cover (c in Fig. 5b) to avoid evaporation of the volatile 2-H. The saline with 2-H was added through a small diameter opening on the cover.
For further data analysis, the amplitude of the nCAPs, estimated from baseline to peak (Fig. 5), were measured at a specific time (every 1.0 s, 1.0 min or 1.0 h) and were expressed as a percentage of the amplitude of the nCAP at t = 0 (which was considered to be 100%). In the neuropharmacological experiments, time t = 0 was considered the time before application of the compound under investigation. […] The data were fitted in the program GraphPad Prism 5.0 using a one-phase exponential decay equation for the IC50. Data were analyzed by one-way ANOVA and Bonferroni’s post hoc tests, when required. Significance was determined using Students t-test or ANOVA as appropriate (p<0.05).

nerves of the rat tail = tested on: nerves of the rat tail; set-up: method as in PMID 6093852; settings: cited from earlier work
honeybees = tested on: honeybees; set-up: method as in earlier work; settings: cited from earlier work
[2] = no reference given; cited from earlier work
wax moth larvae (WML) [3] = test: GC-MS quantification of 2-H in wax moth larvae bitten by honeybees; assay type: in vivo, Galleria mellonella; settings: extracted after full recovery, n = 10
Description: We measured the 2-H content of the following types of samples: a) isolated honeybee mandibular glands (n = 30); b) wax moth larvae (WML; body weight of around 0.01 g) that had been bitten by honeybees (n = 30) –2-H extracted immediately after paralysis; c) WML that had been bitten by honeybees (n = 10) –2-H extracted after full recovery; d) non-bitten WML (controls, n = 10).
To optimize the detection of 2-H, all samples were 1) treated with liquid nitrogen in order to stop any enzymatic process and ensure complete lyses of cell walls and then 2) extracted with ethanol. The extracts were centrifuged, filtered, and stored at −20°C until analysis.
Chromatographic analyses were carried out on a Hewlett Packard 6890 gas chromatographic model hyphenated to a Hewlett Packard 5973 mass selective detector using electron impact (70 eV) as the ionization source, further equipped with an Agilent 6890 autosampler. An HP 5MS (30 m×0.25 mm; film thickness 0.25 µm) column was used for the separations. Helium was used as the carrier gas (flow 0.8 ml/min). […] Thus, under the above chromatographic conditions, the Rt of 2-H was 8.47 min and the ions monitored at EI (70eV, full scan) were m/z 43, 58, 71, 85, 99 and 114. Quantification, however, was performed at Selected Ion Monitoring (SIM) mode and the ions were monitored at m/z 58 and 71. […]

rat = settings: oral rat; no reference given; cited from earlier work
wax moth larvae (WML) [4] = test: Locomotory pattern of tethered wax moth larvae after injection; assay type: in vivo, Galleria mellonella; settings: 2.5 µL injected (8.15 mg per 1 g body weight), larger WML body weight 0.25 g
Description: To monitor the constant locomotory pattern of WML, the probe of a force-displacement transducer (FT-03C, Grass Instrument Company, USA), attached to a micromanipulator, was hooked onto the tail of the WML, while the head was carefully pinned to a wax substrate, [14]. The electrical signal generated by the rhythmic force produced during locomotion was amplified and fed to a computer through a data acquisition card interface (Keithley KPCI 3102, Keithley Instruments, Cleveland, OH, USA). Software designed using the facilities of Labview (Labview 5.1, National Instruments USA) permitted analysis of the recorded data.

SMILES: CCCCCC(C)=O [2-H, 2-heptanone]
- neurotoxic action in 24 h monitoring of nerve vitality [1]: no neurotoxic action
- IT0 (time required for 100% inhibition of the nCAP) ([1]; 1.41 mg/mL): 517.5 ± 25.62 s
- IT50 (time to inhibit nCAP amplitude to 50% of control) ([1]; 1.41 mg/mL): 109.7 ± 2.87 s
- IT0 (time required for 100% inhibition of the nCAP) ([1]; 2.28 mg/mL): 358.8 ± 18.07 s
- IT50 (time to inhibit nCAP amplitude to 50% of control) ([1]; 2.28 mg/mL): 108.9 ± 0.22 s
- IT0 (time required for 100% inhibition of the nCAP) ([1]; 3.41 mg/mL): 221.88 ± 7.32 s
- IT50 (time to inhibit nCAP amplitude to 50% of control) ([1]; 3.41 mg/mL): 39.14 ± 4.84 s
- time to complete elimination of the nCAP ([1]; 3.41 mg/mL): 221.88 s
- IT0 (time required for 100% inhibition of the nCAP) ([1]; 10 mg/mL): 195 ± 12 s
- IT50 (time to inhibit nCAP amplitude to 50% of control) ([1]; 10 mg/mL): 22.3 ± 1.1 s
- IC50 ([1]; Rattus norvegicus, read-out: IC50 from concentration-response curves of the IT0 values): 469 µg/mL (≈ 4.11 mM)
- IT0 ([1]; Table 3, 3.41 mg/mL, unit not given in Table 3, s): 221.88±7.32^a seconds
- IT50 ([1]; Table 3, 3.41 mg/mL, unit not given in Table 3, seconds per Table 2): 39.14 ± 4.84 s
- recovery of nCAP amplitude after wash with normal saline ([1]; after elimination of nCAP, remained at this level for at least 24 h, n = 8): 89.51%
- neurotoxic effects in vivo (nerves of the rat tail): no neurotoxic effects
- low concentration easily detectable by honeybees (honeybees): 4.049 µg/mL
- logP [2]: 1.98
- 2-H detected in fully-recovered WML (wax moth larvae (WML) [3]): no 2-H
- acute LD50 (rat): 1670 mg/kg
- effect on locomotory pattern (wax moth larvae (WML) [4]): body movement stopped abruptly
- recovery time of locomotory pattern (wax moth larvae (WML) [4]; n = 8): 87.62 min
